12 compounds from patent US20240018136A1, “CDK Inhibitors And Their Use As Pharmaceuticals” (Prelude Therapeutics, Incorporated, priority 2022, published 2024) can be followed below.

Molecules are shown by their SMILES.

A word on the IC50: it is the concentration at which inhibition is half-maximal.

Assay [1] deals with CDK2/Cyclin E2 (Homo sapiens, UniProt P24941). The assay can be described thus: CDK2/CyclinE2 enzymatic activity assay (TR-FRET). Format: biochemical. Particulars: ATP 1 mM final, read-out: CDK2_E1 IC50. Summed up:
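Insect-cell-expressed CDK2/Cyclin E2 (1 nM), ULight-4E-BP1 (50 nM) and ATP (1 mM) in HEPES pH 7.4 buffer were preincubated 20 min at RT with compound (9-dose, 3-fold), started with 10 mM MgCl2 and run 45 min at 37 °C. EDTA/Eu-anti-P-4E-BP1 stop, 60 min TR-FRET detection; IC50 from 4-parameter Hill fit.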

In assay [2] the target is T1, CDK4/Cyclin D1 (Homo sapiens, UniProt P11802).
T1 construct: purchased ProQinase; host or cells: insect cell
The assay can be described thus: CDK4/CyclinD1 enzymatic activity assay (TR-FRET). The class given is biochemical. Particulars: ATP 2 mM final, read-out: CDK4_D1 IC50. Summed up: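 Insect-cell-expressed CDK4/Cyclin D1 (1 nM) phosphorylated ULight-4E-BP1 peptide (100 nM) at 2 mM ATP in HEPES pH 7.4 buffer after 20 min compound preincubation. Reaction started with 10 mM MgCl2, ran 45 min at 37 °C, then EDTA quench and Eu-anti-phospho-4E-BP1 TR-FRET detection. IC50 from 9-point 3-fold dilutions, 4-parameter fit.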

Assay [3] concerns OVCAR3 p-RB. The assay can be described thus: pRB ICW assay in OVCAR3 cells. Format: cell-based. As to conditions: Homo sapiens, OVCAR-3, incubated with compound for 2 hours. Summed up: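 OVCAR3 cells were treated 2 h at 37 °C with a 9-point half-log compound series, in duplicate, with 10 μM reference compound as maximum inhibition. Cells were then fixed, permeabilized and stained with anti-phospho-RB plus DRAQ5. In-cell western intensities were read at 700/800 nm on Odyssey CLx.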

T1 sequence (P11802 whole entry): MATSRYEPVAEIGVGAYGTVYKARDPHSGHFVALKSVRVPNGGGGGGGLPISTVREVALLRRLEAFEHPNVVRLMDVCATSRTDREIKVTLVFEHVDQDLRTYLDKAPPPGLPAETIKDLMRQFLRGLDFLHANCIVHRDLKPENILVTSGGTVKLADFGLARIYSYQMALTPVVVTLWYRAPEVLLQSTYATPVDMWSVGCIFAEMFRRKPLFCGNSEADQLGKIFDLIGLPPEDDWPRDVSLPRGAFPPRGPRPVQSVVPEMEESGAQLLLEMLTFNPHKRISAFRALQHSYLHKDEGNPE
T1 sequence (P24385 whole entry partner): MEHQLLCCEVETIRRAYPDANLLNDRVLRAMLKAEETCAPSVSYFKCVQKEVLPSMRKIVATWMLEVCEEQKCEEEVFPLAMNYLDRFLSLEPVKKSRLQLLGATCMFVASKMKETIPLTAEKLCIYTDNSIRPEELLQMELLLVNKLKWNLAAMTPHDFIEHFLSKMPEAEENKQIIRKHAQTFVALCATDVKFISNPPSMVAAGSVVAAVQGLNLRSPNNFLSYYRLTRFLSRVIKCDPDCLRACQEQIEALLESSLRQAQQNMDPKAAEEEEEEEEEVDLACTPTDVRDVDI

`Cn1cc(S(=O)(=O)N2CCC(Nc3ncc(C(F)(F)F)c(-c4cnc(C(O)C(F)F)s4)n3)CC2)cn1` (stereo not drawn) [Example 92, 2,2-difluoro-1-(5-(2-((1-((1-methyl-1H-pyrazol-4-yl)sulfonyl)piperidin-4-yl)amino)-5-(trifluoromethyl)pyrimidin-4-yl)thiazol-2-yl)ethan-1-ol]: the IC50 in assay [1], in assay [2] and in assay [3] was at most 100 nM throughout.
On to `Cc1ncc(-c2nc(N[C@@H]3CCN(S(=O)(=O)c4cnn(C)c4)C[C@H]3F)ncc2C(F)(F)F)s1` [Example 93, N-((3R,4R)-3-fluoro-1-((1-methyl-1H-pyrazol-4-yl)sulfonyl)piperidin-4-yl)-4-(2-methylthiazol-5-yl)-5-(trifluoromethyl)pyrimidin-2-amine], for which the IC50 was at most 100 nM in assay [1], at most 100 nM in assay [2] and 100 to 1000 nM in assay [3].
Consider `Cc1ncc(-c2nc(N[C@H]3CCN(S(=O)(=O)c4cnn(C)c4)C[C@H]3F)ncc2C(F)(F)F)s1` [Example 94, N-((3R,4S)-3-fluoro-1-((1-methyl-1H-pyrazol-4-yl)sulfonyl)piperidin-4-yl)-4-(2-methylthiazol-5-yl)-5-(trifluoromethyl)pyrimidin-2-amine], for which the IC50 in assay [1], in assay [2] and in assay [3] was at most 100 nM each time.
Consider `Cn1cc(S(=O)(=O)N2CCC(Nc3ncc(C(F)(F)F)c(-c4cnc(C5(O)CCCC5)s4)n3)CC2)cn1` [Example 95, 1-(5-(2-((1-((1-methyl-1H-pyrazol-4-yl)sulfonyl)piperidin-4-yl)amino)-5-(trifluoromethyl)pyrimidin-4-yl)thiazol-2-yl)cyclopentan-1-ol], for which the IC50 in assay [1], in assay [2] and in assay [3] was at most 100 nM in each case.
In the case of `C[C@@H]1CN(S(=O)(=O)c2cn(C)cn2)CC[C@@H]1Nc1ncc(C(F)(F)F)c(-c2cnc(C(C)(C)O)s2)n1` [Example 96, 2-(5-(2-(((3R,4S)-3-methyl-1-((1-methyl-1H-imidazol-4-yl)sulfonyl)piperidin-4-yl)amino)-5-(trifluoromethyl)pyrimidin-4-yl)thiazol-2-yl)propan-2-ol], the IC50 in assay [1] is at most 100 nM; in assay [2], 100 to 1000 nM; in assay [3], at most 100 nM.
On to `CC(O)c1ncc(-c2nc(N[C@@H]3CCN(S(=O)(=O)c4cnn(C)c4)C[C@@H]3F)ncc2C(F)(F)F)s1` (stereo partly drawn) [Example 97, 1-(5-(2-(((3S,4R)-3-fluoro-1-((1-methyl-1H-pyrazol-4-yl)sulfonyl)piperidin-4-yl)amino)-5-(trifluoromethyl)pyrimidin-4-yl)thiazol-2-yl)ethan-1-ol], for which the IC50 was 100 to 1000 nM in assay [1], 100 to 1000 nM in assay [2] and above 1000 nM in assay [3].
Consider `CC(O)c1ncc(-c2nc(N[C@H]3CCN(S(=O)(=O)c4cnn(C)c4)C[C@H]3F)ncc2C(F)(F)F)s1` (stereo partly drawn) [Example 98, 1-(5-(2-(((3R,4S)-3-fluoro-1-((1-methyl-1H-pyrazol-4-yl)sulfonyl)piperidin-4-yl)amino)-5-(trifluoromethyl)pyrimidin-4-yl)thiazol-2-yl)ethan-1-ol], for which the IC50 in assay [1], in assay [2] and in assay [3] was at most 100 nM in each case.
As for `CC(O)c1ncc(-c2nc(N[C@@H]3CCN(S(=O)(=O)c4cnn(C)c4)C[C@H]3F)ncc2C(F)(F)F)s1` (stereo partly drawn) [Example 99, 1-(5-(2-(((3R,4R)-3-fluoro-1-((1-methyl-1H-pyrazol-4-yl)sulfonyl)piperidin-4-yl)amino)-5-(trifluoromethyl)pyrimidin-4-yl)thiazol-2-yl)ethan-1-ol], the IC50 was at most 100 nM in assay [1], at most 100 nM in assay [2] and 100 to 1000 nM in assay [3].
Turning to `CC(O)c1ncc(-c2nc(N[C@H]3CCN(S(=O)(=O)c4cnn(C)c4)C[C@@H]3F)ncc2C(F)(F)F)s1` (stereo partly drawn) [Example 100, 1-(5-(2-(((3S,4S)-3-fluoro-1-((1-methyl-1H-pyrazol-4-yl)sulfonyl)piperidin-4-yl)amino)-5-(trifluoromethyl)pyrimidin-4-yl)thiazol-2-yl)ethan-1-ol], the values for the IC50 in assay [1], in assay [2] and in assay [3] were at most 100 nM, 100 to 1000 nM and above 1000 nM, respectively.
With `CC(O)c1ncc(-c2nc(N[C@H]3CCN(S(=O)(=O)c4cnn(C)c4)C[C@H]3C)ncc2C(F)(F)F)s1` (stereo partly drawn) [Example 102, 1-(5-(2-(((3R,4S)-3-methyl-1-((1-methyl-1H-pyrazol-4-yl)sulfonyl)piperidin-4-yl)amino)-5-(trifluoromethyl)pyrimidin-4-yl)thiazol-2-yl)ethan-1-ol], the IC50 in assay [1] is at most 100 nM; in assay [2], 100 to 1000 nM; in assay [3], 100 to 1000 nM.
Regarding `CC(O)c1ncc(-c2nc(N[C@H]3CCN(S(=O)(=O)c4cnc(N)s4)C[C@H]3C)ncc2C(F)(F)F)s1` (stereo partly drawn) [Example 103, 1-(5-(2-(((3R,4S)-1-((2-aminothiazol-5-yl)sulfonyl)-3-methylpiperidin-4-yl)amino)-5-(trifluoromethyl)pyrimidin-4-yl)thiazol-2-yl)ethan-1-ol], the figures for the IC50 in assay [1], in assay [2] and in assay [3] were at most 100 nM, 100 to 1000 nM and above 1000 nM, respectively.
In the same order, the values of `CC(O)c1ncc(-c2nc(N[C@H]3CCN(S(=O)(=O)c4c[nH]cn4)C[C@H]3C)ncc2C(F)(F)F)s1` (stereo partly drawn) [Example 104, 1-(5-(2-(((3R,4S)-1-((1H-imidazol-4-yl)sulfonyl)-3-methylpiperidin-4-yl)amino)-5-(trifluoromethyl)pyrimidin-4-yl)thiazol-2-yl)ethan-1-ol] are at most 100 nM, 100 to 1000 nM and 100 to 1000 nM.
